Laboratory results taken from patent US12521363B2, “Use of levodopa, carbidopa and entacapone for treating Parkinson's disease” (ORION CORPORATION, priority 2010, dated 2026).

How the values were obtained:
[1] = cited from earlier work
[2] = Repeated-dose levodopa/carbidopa pharmacokinetics with and without entacapone, human subjects (Example 1); format: in vivo; settings: for levodopa pharmacokinetics, effect of increasing the carbidopa dose: repeated dosing 4 times a day, levodopa 100 mg, carbidopa 25/50/100 mg
Excerpt: The primary objective of the study was to evaluate the effects of different carbidopa dose levels on the pharmacokinetics (PKs) of levodopa with and without concomitant administration of entacapone. This was the first study to evaluate the effect of the combinations in a repeated dose setting in human subjects. Pharmacokinetics of levodopa in the presence of AADC and COMT inhibition with substances like carbidopa and entacapone is complex and difficult to model based on single dose PK data in humans, or animal models. However, it has been shown earlier that levodopa PK in healthy subjects is similar to that seen in PD patients and therefore the results of this study indicate how the levodopa PK will be in PD patients and how the levodopa PK will predict symptom control of PD. A total of 25 human subjects were enrolled into the study. The study subjects were randomly allocated to receive either 200 mg of entacapone or corresponding placebo in each treatment period. Entacapone, or a corresponding placebo, was administered concomitantly with 100 mg of levodopa and 25 mg of carbidopa at 3.5-hour intervals 4 times a day. In addition, the study subjects received in a randomised order in each treatment period one of the additional dose levels (0 mg, 25 mg, and 75 mg) of carbidopa. There were 3 treatment periods, one for each carbidopa dose level and for the same subjects with cross-over design so that each subject participated for the 3 periods. There were two groups with the same carbidopa doses, one group with and one group without concomitant entacapone administration. By this study design, the effect of entacapone on carbidopa dose escalation and subsequently to levodopa PK could be assessed in repeated dose setting in humans. Dose combinations were: • A: Entacapone 200 mg+levodopa 100 mg+carbidopa 25 mg • B: Entacapone 200 mg+levodopa 100 mg+carbidopa 50 mg • C: Entacapone 200 mg+levodopa 100 mg+carbidopa 100 mg • E: Levodopa 100 mg+carbidopa 25 mg • F: Levodopa 100 mg+carbidopa 50 mg • G: Levodopa 100 mg+carbidopa 100 mg After the first and last dose of the day, the whole levodopa and carbidopa plasma profiles were assessed and after the second and third dose only the minimum concentrations (just before the next dose at 3.5 and at 7.0 hours) were assessed.

[3] = Repeated-dose levodopa pharmacokinetics with increasing carbidopa, entacapone dose levels or tolcapone (Example 2); format: in vivo, human; settings: repeated dosing, increased COMT-inhibition by higher entacapone dose or by tolcapone
Excerpt: The primary objective of the study was to evaluate the effects of different carbidopa dose levels on the pharmacokinetics (PKs) of levodopa with concomitant administration of different entacapone dose levels and with the moderately potent COMT inhibitor tolcapone.
The study subjects were randomly allocated to receive either increasing doses of entacapone or standard dose of tolcapone combined with increasing doses of carbidopa in each treatment period, a total of 12 different dose combinations. Entacapone was administered concomitantly with 100 mg of levodopa and 25 mg of carbidopa at 3.5-hour intervals 4 times a day and tolcapone 3 times a day. In addition, the study subjects received increasing dose levels of carbidopa.
There were three groups, one for each carbidopa dose level, and 4 treatment periods in each group, one for each entacapone dose level or for tolcapone and for the same subjects with cross-over design so that one subject participated for the 4 periods. By this study design the effect of entacapone and tolcapone on carbidopa dose escalation and subsequently to levodopa PK could be assessed in repeated dose setting in humans.
After each levodopa dose of the day, the levodopa plasma profile was assessed. The levodopa plasma concentrations after entacapone dose escalation and tolcapone standard dose and with increased carbidopa dose are given in FIG. 3.

[4] = increased carbidopa dose in the presence of a COMT inhibitor

Q: With `Cc1c(Cl)c(C)[n+]([O-])c(Cl)c1-c1noc(-c2cc(O)c(O)c([N+](=O)[O-])c2)n1` [BIA 9-1067, 5-[3-(2,5-dichloro-4,6-dimethyl-1-oxypyridin-3-yl)-[1,2,4]oxadiazol-5-yl]-3-nitrobenzene-1,2-diol] as the molecule, how does the solubility [1] read?
A: The solubility was “poorly soluble”.

Q: For `C[C@@](Cc1ccc(O)c(O)c1)(NN)C(=O)O` [carbidopa, (−)-L-alpha-hydrazino-alpha-methyl-beta-(3,4-dihydroxybenzene)propionic acid], which “accumulation of carbidopa concentrations in plasma” value ([2]; increased carbidopa dose, repeated dosing, towards the end of the dosing period) is on record?
A: Its value is “no accumulation”.

Q: Which water solubility ([1]; water) does the source give for `CCN(CC)C(=O)/C(C#N)=C/c1cc(O)c(O)c([N+](=O)[O-])c1` [entacapone, (E)-2-cyano-3-(3,4-dihydroxy-5-nitrophenyl)-N-diethyl-2 propenamide] here?
A: The water solubility was “poor solubility”.

Q: With `N[C@@H](Cc1ccc(O)c(O)c1)C(=O)O` [levodopa, (−)-L-alpha-amino-beta-(3,4-dihydroxybenzene)propanoic acid] as the molecule, how does the AUC of levodopa [2, 4] read?
A: The AUC of levodopa was “significantly increased”.

Q: What about the Cmin of levodopa [2, 4] of the same molecule?
A: Its Cmin of levodopa is “significantly increased”.

Q: And the “maximum concentrations of levodopa” value ([2]; increased carbidopa dose with COMT inhibitor)?
A: Its value is “not clinically significantly increased”.

Q: What about the “levodopa pharmacokinetics, effect of increasing the carbidopa dose” value ([2]; with entacapone 200 mg) of the same molecule?
A: The value was “significantly improve”.

Q: And the “levodopa pharmacokinetics, effect of increasing the carbidopa dose” value ([2]; without entacapone)?
A: Its value is “did not have such an effect”.

Q: What about the “levodopa pharmacokinetics, effect of increasing the carbidopa dose” value [3] of the same molecule?
A: Its value is “significantly improve”.
